# Laboratory results from patent publication US8835354B2, “Composition for controlling plant diseases and method for controlling plant diseases” (Sumitomo Chemical Company, Limited, priority 2008, dated 2014).
# What was measured:
# Assay type in all cases: in vivo
# [1] = test system: Pythium irregulare, pathogen of cucumber damping-off; test: Cucumber damping-off seed treatment test with metalaxyl (Test Example 4); conditions: seventh day
# Method: (§1) Control value=100(A−B)/A “Equation 1”
# (§2) A: Incidence of disease of plant in untreated area
# (§3) B: Incidence of disease of plant in treated area
# (§4) Generally, the control value expected for the case where the given two kinds of active ingredient compounds are mixed and used for the treatment, the so-called control value expectation is calculated from the following Colby's calculating equation. E=X+Y−(X×Y)/100 “Equation 2”
# (§5) X: Control value (%) when active ingredient compound A is used for treatment in M g per hectare or in M g per 100 kg of seeds
# (§6) Y: Control value (%) when active ingredient compound B is used for treatment in N g per hectare or in N g per 100 kg of seeds
# (§7) E: Control value (%) expected for the case where active ingredient compound A in M g per hectare or in M g per 100 kg of seeds and active ingredient compound B in N g per hectare or in N g per 100 kg of seeds are mixed and used for treatment (hereinbelow referred to as “control value expectation”) “Synergetic effect”=(Actual control value)×100/(Control value expectation) Incidence of disease=(Number of no budding seeds)×100/(Number of total disseminated seeds) “Equation 3”
# (§8) An acetone solution of compound (1b) and an acetone solution of metalaxyl were mixed so as to prepare mixed liquids containing compound (1b) and metalaxyl in predetermined concentration. These mixed liquids were adhered on the surface of cucumber (Sagamihanjiro) seeds so as to obtain treated seeds. […] They were allowed to grow in a greenhouse while irrigated and the number of non-budding seeds was checked on the seventh day after the dissemination and the incidence of disease was calculated by Equation 3. The control value was calculated by Equation 1 based on the incidence of disease. In order to calculate the control value, the incidence of disease was also determined in the case in which the plants had not been treated with the agent. […]
# [2] = test system: Rhizoctonia solani, pathogen of cucumber damping-off; test: Cucumber damping-off seed treatment test (Test Example 1); conditions: seventh day
# Description: An acetone solution of compound (1b) and an acetone solution of tolclofos-methyl were mixed so as to prepare mixed liquids containing compound (1b) and tolclofos-methyl in predetermined concentration. These mixed liquids were used for smear treatment of cucumber (Sagamihanjiro) seeds using a rotary seed treatment machine (seed dresser, produced by Hans-Ulrich Hege GmbH) so as to obtain treated seeds. The treated seeds were left untouched overnight and then disseminated on the soil which filled a plastic pot and covered with the soil containing Rhizoctonia solani, pathogen of cucumber damping-off, which had been cultured on a bran medium. They were allowed to grow in a greenhouse while irrigated and the number of non-budding seeds was checked on the seventh day after the dissemination and the incidence of disease was calculated by Equation 3. The control value was calculated by Equation 1 based on the incidence of disease. The incidence of disease was also checked in the case in which the plants had not been treated with the agent in order to calculate the control value. […]
# Generally, the control value expected for the case where the given two kinds of active ingredient compounds are mixed and used for the treatment, the so-called control value expectation is calculated from the following Colby's calculating equation. […]
# [3] = test system: Sclerotinia homeocarpa, pathogen of dollar spot of turfgrass; test: Turfgrass dollar spot foliage application test (Test Example 2); conditions: 14 days
# Method: as §1, §2, §3, §4, §5, §6, §7
# A plastic pot was filled with sandy soil. Turfgrass (bentgrass penncross) was disseminated and allowed to grow in a green house for 3 weeks. A wettable powder of compound (1b) and a wettable powder of tolclofos-methyl (Grancer Wettable Powder manufactured by Nihon Green & Garden Corporation) were respectively diluted with water and then tank-mixed so as to prepare tank-mixed liquids containing compound (1b) and tolclofos-methyl in predetermined concentration. The tank-mixed liquids were subjected to foliage application such that they could be sufficiently adhered to the leaves of the aforementioned turfgrass. Thereafter, the plants were air-dried. After the plants were air-dried, Sclerotinia homeocarpa, pathogen of dollar spot of turfgrass, which had been cultured on a bran medium was sprayed on the plants to be treated from above. Then, the plants were placed in a greenhouse at 19° C. to 23° C. under high humidity for 14 days, and thereafter control effect was checked. The diseased area ratio of the pot plants on which the agents had been sprayed was determined as the incidence of disease at the time of checking and the control value calculated by Equation 1 based on the incidence of disease thus determined. In order to calculate the control value, the incidence of disease was also determined in the case in which the plants had not been treated with the agent.
# As a comparison, the respective wettable powders described above were diluted with water in predetermined concentration so as to prepare a compound (1b) liquid and a tolclofos-methyl liquid respectively and they were subjected to similar tests.
# [4] = test system: Pythium irregulare, pathogen of cucumber damping-off; test: Cucumber damping-off seed treatment test with mefenoxam (Test Example 5); conditions: seventh day
# Method: as §1, §2, §3, §4, §5, §6, §7
# as §8, with “mefenoxam” for “metalaxyl”
# [5] = test system: Rhizoctonia solani, pathogen of brown patch of turfgrass; test: Turfgrass brown patch foliage application test (Test Example 3); conditions: 14 days
# Method: as §1, §2, §3, §4, §5, §6, §7
# A plastic pot was filled with sandy soil. Turfgrass (bentgrass penncross) was disseminated and allowed to grow in a green house for 3 weeks. A wettable powder of compound (1b) and a wettable powder of tolclofos-methyl (Grancer Wettable Powder manufactured by Nihon Green & Garden Corporation) were respectively diluted with water and then tank-mixed so as to prepare tank-mixed liquids containing compound (1b) and tolclofos-methyl in predetermined concentration. […] The diseased area ratio of the pot plants on which the agents had been sprayed was determined as the incidence of disease at the time of checking and the control value was calculated by Equation 1 based on the incidence of disease thus determined. In order to calculate the control value, the incidence of disease was also determined in the case in which the plants had not been treated with the agent. […]
# [6] = compound (1b) 0.005 g/100 kg-seed alone
# [7] = tolclofos-methyl 37.5 g/ha alone
structure (smiles),measurement,setting,value
CNC(=O)C(OC)c1ccccc1COc1cc(C)ccc1C (racemic) [(1b)],Actual control value,[1]; [6],25%
same,Actual control value,[2]; compound (1b) 1 g/100 kg-seed alone,30%
same,Actual control value (%),[3]; compound (1b) 150 g/ha alone,67.2%
same,Actual control value,[4]; [6],25%
same,Actual control value,[5]; compound (1b) 9.4 g/ha alone,30%
same,Actual control value,[5]; compound (1b) 37.5 g/ha alone,45%
"COCC(=O)N(c1c(C)cccc1C)[C@H](C)C(=O)OC [Mefenoxam, mefenoxam]",Actual control value,[4]; mefenoxam 0.00125 g/100 kg-seed alone,25%
same,Actual control value,[4]; mefenoxam 0.005 g/100 kg-seed alone,50%
"COCC(=O)N(c1c(C)cccc1C)C(C)C(=O)OC (stereo not drawn) [Metalaxyl, metalaxyl]",Actual control value,[1]; metalaxyl 0.00125 g/100 kg-seed alone,25%
same,Actual control value,[1]; metalaxyl 0.0025 g/100 kg-seed alone,12.5%
"COP(=S)(OC)Oc1c(Cl)cc(C)cc1Cl [Tolclofos-methyl, tolclofos-methyl]",Actual control value,[2]; tolclofos-methyl 10 g/100 kg-seed alone,57%
same,Actual control value (%),[3]; [7],12.4%
same,Actual control value (%),[3]; tolclofos-methyl 150 g/ha alone,43.7%
same,Actual control value (%),[3]; tolclofos-methyl 600 g/ha alone,59.3%
same,Actual control value,[5]; [7],30%
